Measurements: BigSolDB 2.1

Brc1cnc2[nH]ccc2c1
solubility (mole fraction)
Settings | in acetonitrile | in dichloromethane | in ethanol | in ethyl acetate | in isopropanol | in methanol | in methyl acetate | in n-butanol | in n-hexane | in n-propanol
278.15 K | 0.00224 | 0.00083 | 0.0078 | 0.0161 | 0.00779 | 0.00595 | 0.0222 | 0.0154 | 0.00015 | 0.00916
283.15 K | 0.00304 | 0.00133 | 0.00958 | 0.0184 | 0.00915 | 0.00673 | 0.0253 | 0.0177 | 0.00017 | 0.0109
288.15 K | 0.00366 | 0.00216 | 0.0106 | 0.02 | 0.0106 | 0.00779 | 0.0279 | 0.0202 | 0.00019 | 0.0123
293.15 K | 0.00436 | 0.00333 | 0.0125 | 0.0225 | 0.0123 | 0.00882 | 0.0312 | 0.0228 | 0.00021 | 0.0145
298.15 K | 0.00519 | 0.00505 | 0.0139 | 0.0258 | 0.0143 | 0.00972 | 0.0347 | 0.0251 | 0.00024 | 0.0165
303.15 K | 0.00616 | 0.00749 | 0.0158 | 0.0286 | 0.0165 | 0.0111 | 0.0381 | 0.0278 | 0.00027 | 0.0188
308.15 K | 0.00726 | 0.0106 | 0.0177 | 0.0321 | 0.019 | 0.0124 | 0.0419 | 0.0312 | 0.0003 | 0.0209
313.15 K | 0.00858 | 0.0148 | 0.0198 | 0.0363 | 0.0217 | 0.0138 | 0.0459 | 0.0345 | 0.00034 | 0.0237
318.15 K | 0.00981 | – | 0.0222 | 0.0404 | 0.0252 | 0.0153 | 0.0509 | 0.0377 | 0.00036 | 0.0268
323.15 K | 0.0116 | – | 0.0245 | 0.045 | 0.0275 | 0.0171 | 0.0549 | 0.0415 | 0.00041 | 0.0298
